This is an account of results in patent EP2792360A1, “(1aR,12bS)-8-cyclohexyl-11-fluoro-N-((1-methylcyclopropyl)sulfonyl)-1a-((3-methyl-3,8-diazabicyclo[3.2.1]oct-8-yl)carbonyl)-1,1a,2,2b-tetrahydrocyclopropa[d]indolo[2,1-a][2]benzazepine-5-carboxamide for use in treating HCV” (IP Gesellschaft für Management mbH, priority 2013, dated 2014).

A short description of series [1]: Stability experiment for polymorph Form A of Compound 1 (stability chamber). Type of series: physicochemical. The settings on record: 40 °C for 30 days. As for the experimental part: CHARACTERIZATION EXAMPLE 13 - Stability Experiment for Polymorph Form A ({drug1a}) of Compound 1 (drug 1): The physical stability of Form A ({drug1a}) of Compound 1 (drug 1) was determined as follows. Compound 1 (drug 1) prepared according to Preparation Example 3 was analyzed by pXRD, DSC, HPLC and 1H-NMR and found to be of pure crystal Form A ({drug1a}) of 99.9 % purity (by HPLC peak area at 230 nm detection wavelength). An aliquot of the sample (3.0 g) was placed in a primary polyethylene bag, the primary bag was flushed with nitrogen gas and sealed. The primary polyethylene bag was then placed in a secondary polyethylene bag which was again flushed with nitrogen gas and a silica gel sachet was placed between the inner and the outer bag. The double bagged material was then placed in a triple laminated aluminum pouch and placed in a stability chamber at 40 °C for 30 days. Analysis by HPLC and 1H-NMR of the resulting material indicated pure Form A ({drug1a}) of Compound 1 (drug 1) of 99.9 % purity (by HPLC peak area at 230 nm). […] The triclinic cell parameters were determined to be: a = 14.835(7) A, b = 15.216(8) A, c = 18.790(10) A, alpha = 90.306(7) °, beta = 93.619(7) °, gamma = 1 13.045(7) °, volume = 3893(3) A3. The space group was determined to be P-1. The molecular weight was 468.23 giving a calculated density of 1.598g/cm3, and µ(Mo) = 0.50mm"1 for Z = 8. […]

Series [2] in a line: Relative stability (non-competitive and competitive interconversion) experiments of crystal forms of Compound 1.
Experimental: For the non-competitive experiments, only a single starting crystal form was used to study the potential conversion to another more stabb form. […] The slurry was cooled to 25-30 °C, filtered, suction dried for 1 hour and dried in a vacuum oven at 70 °C and 8 kPa absolute pressure for 12 hours. […] The slurry was cooled to 25-30 °C, filtered, suction dried for 1 hour and dried in a vacuum oven at 70 °C and 8 kPa absolute pressure for 12 hours. […] The slurry was cooled to 25-30 °C, filtered, suction dried for 1 hour and dried in a vacuum oven at 70 °C and 8 kPa absolute pressure for 12 hours.

Regarding `COc1ccc(Cl)c(S(=O)(=O)NC(=O)c2cn3cc(C(F)(F)F)cc(Cl)c3n2)c1` [Form A ({drug1a}), 8-chloro-N-[(2-chloro-5-methoxyphenyl)sulfonyl]-6-(trifluoromethyl)-imidazo[1,2-a]pyridine-2-carboxamide], the “crystal form by pXRD and DSC after storage” value in series [1] is “pure polymorphForm A”. Moreover, the “purity (by HPLC peak area at 230 nm) after storage” value in series [1] (double polyethylene bags under nitrogen in aluminum pouch, 99.9 % before storage) is reported as 99.9%. Moreover, the “crystal form of the resulting material” value in series [2] (non-competitive, refluxed in deionized water at about 95 °C for 3 hours, pXRD, DSC, TGA, 1H-NMR) is recorded as “remained unchanged”. Also, the “relative thermodynamic stability of polymorph form” value in series [2] (water heated to 95 °C or methanol heated to 55 °C) is recorded as “most thermodynamically stable polymorph form”.
